The assay deals with 5-HT2B (Homo sapiens, UniProt P41595). The assay is classed as binding.

For two compounds, Ki results are on record in paper PMC6451765 (Journal of biomolecular structure & dynamics, 2013).

Each structure is given as a SMILES string.

5-HT2B, sequence (P41595 whole entry): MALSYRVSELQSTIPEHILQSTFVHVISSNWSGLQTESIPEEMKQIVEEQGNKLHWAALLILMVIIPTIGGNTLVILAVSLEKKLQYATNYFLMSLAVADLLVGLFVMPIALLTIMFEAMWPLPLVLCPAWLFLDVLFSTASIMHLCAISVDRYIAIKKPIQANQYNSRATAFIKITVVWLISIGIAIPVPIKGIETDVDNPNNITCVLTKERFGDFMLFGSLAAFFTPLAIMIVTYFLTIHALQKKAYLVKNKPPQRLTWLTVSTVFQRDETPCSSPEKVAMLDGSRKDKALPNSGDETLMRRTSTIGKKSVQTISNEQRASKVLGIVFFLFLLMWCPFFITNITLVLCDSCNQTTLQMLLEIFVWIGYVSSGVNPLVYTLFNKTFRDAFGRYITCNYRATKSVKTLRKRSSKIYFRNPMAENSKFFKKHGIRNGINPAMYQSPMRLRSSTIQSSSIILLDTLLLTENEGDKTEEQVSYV

For orientation: Ki means the equilibrium dissociation constant of an inhibitor or competing ligand from its target. `FC(F)OC(Cl)C(F)(F)F` (centres unmarked) [I, isoflurane] returned an inhibition constant (Ki) of 7.78 µM.

Take `CC(C)c1cccc(C(C)C)c1O` [P, propofol]: the Ki was 0.95 µM.
